Experimental data published in the supplement of paper PMC10307832.

Columns and labels:
Assay in all cases: relative viability (nuclei count vs DMSO), 5 days (fraction); higher = more cells survive
Mirin + OSI-027 = compound: N=C1NC(=O)/C(=C/c2ccc(O)cc2)S1 [Mirin] + COc1cccc2cc(-c3nc([C@H]4CC[C@H](C(=O)O)CC4)n4ncnc(N)c34)[nH]c12 [OSI-027] (partner 0.5 µM)
Procedure, shortened: (§1)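 Relative viability was taken as the ratio of nuclei in treated wells to nuclei in vehicle wells. Lung cancer cell lines in 1536-well plates received compounds by pin tool one day after seeding, either one drug alone or a fixed anchor-drug dose plus five library-drug doses (not always all listed) in √10 steps. Nuclei were counted on 4× images after 5 days of treatment, and values are medians of duplicate plates.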

[1] = compound: CCn1c(-c2nonc2N)nc2cnc(Oc3cccc(NC(=O)c4ccc(OCCN5CCOCC5)cc4)c3)cc21 + Nc1nc2[nH]cc(CCc3ccc(C(=O)N[C@@H](CCC(=O)O)C(=O)O)cc3)c2c(=O)[nH]1 [Pemetrexed] (partner 0.2 µM)
Procedure, shortened: as §1

[2] = compound: CCC1=CN=CN=C1N2CCN(CC2)CC3=NC4=C(N3)C=C(C=C4)C(F)(F)F + C[C@]1(O)C[C@@H](c2nc(-c3ccc4ccc(-c5ccccc5)nc4c3)c3c(N)nccn32)C1 [Linsitinib] (partner 1 µM)
Procedure, shortened: as §1

[3] = compound: CCC1=CN=CN=C1N2CCN(CC2)CC3=NC4=C(N3)C=C(C=C4)C(F)(F)F + CC(C)C[C@H](NC(=O)[C@H](Cc1ccccc1)NC(=O)c1cnccn1)B(O)O [Bortezomib] (partner 0.002 µM)
Procedure, shortened: as §1

LCLC-103H
relative viability (Mirin + OSI-027; first compound 0.25 µM): 0.444
relative viability (Mirin + OSI-027; first compound 0.7906 µM): 0.495
relative viability (Mirin + OSI-027; first compound 2.5 µM): 0.515
relative viability (Mirin + OSI-027; first compound 7.906 µM): 0.509
relative viability (Mirin + OSI-027; first compound 25 µM): 0.442
relative viability ([1]; first compound 0.04 µM): 0.394
relative viability ([1]; first compound 0.1265 µM): 0.444
relative viability ([1]; first compound 0.4 µM): 0.36
relative viability ([1]; first compound 1.265 µM): 0.345
relative viability ([1]; first compound 4 µM): 0.419
relative viability ([2]; first compound 0.04 µM): 1.11
relative viability ([2]; first compound 0.1265 µM): 1.13
relative viability ([2]; first compound 0.4 µM): 0.999
relative viability ([2]; first compound 1.265 µM): 1.17
relative viability ([2]; first compound 4 µM): 1.2
relative viability ([3]; first compound 0.04 µM): 1.04
relative viability ([3]; first compound 0.1265 µM): 0.959
relative viability ([3]; first compound 0.4 µM): 1.07
relative viability ([3]; first compound 1.265 µM): 1.07
relative viability ([3]; first compound 4 µM): 1.18

LOU-NH91
relative viability (Mirin + OSI-027; first compound 0.25 µM): 0.737
relative viability (Mirin + OSI-027; first compound 0.7906 µM): 0.769
relative viability (Mirin + OSI-027; first compound 2.5 µM): 0.751
relative viability (Mirin + OSI-027; first compound 7.906 µM): 0.731
relative viability (Mirin + OSI-027; first compound 25 µM): 0.832
relative viability ([1]; first compound 0.04 µM): 0.371
relative viability ([1]; first compound 0.1265 µM): 0.355
relative viability ([1]; first compound 0.4 µM): 0.355
relative viability ([1]; first compound 1.265 µM): 0.288
relative viability ([1]; first compound 4 µM): 0.356
relative viability ([2]; first compound 0.04 µM): 0.807
relative viability ([2]; first compound 0.1265 µM): 0.923
relative viability ([2]; first compound 0.4 µM): 0.963
relative viability ([2]; first compound 1.265 µM): 0.87
relative viability ([2]; first compound 4 µM): 1.04
relative viability ([3]; first compound 0.04 µM): 0.408
relative viability ([3]; first compound 0.1265 µM): 0.543
relative viability ([3]; first compound 0.4 µM): 0.507
relative viability ([3]; first compound 1.265 µM): 0.523
relative viability ([3]; first compound 4 µM): 0.504

LU99A
relative viability (Mirin + OSI-027; first compound 0.25 µM): 0.284
relative viability (Mirin + OSI-027; first compound 0.7906 µM): 0.288
relative viability (Mirin + OSI-027; first compound 2.5 µM): 0.299
relative viability (Mirin + OSI-027; first compound 7.906 µM): 0.288
relative viability (Mirin + OSI-027; first compound 25 µM): 0.278
relative viability ([1]; first compound 0.04 µM): 0.227
relative viability ([1]; first compound 0.1265 µM): 0.167
relative viability ([1]; first compound 0.4 µM): 0.168
relative viability ([1]; first compound 1.265 µM): 0.163
relative viability ([1]; first compound 4 µM): 0.158
relative viability ([2]; first compound 0.04 µM): 0.514
relative viability ([2]; first compound 0.1265 µM): 0.563
relative viability ([2]; first compound 0.4 µM): 0.581
relative viability ([2]; first compound 1.265 µM): 0.525
relative viability ([2]; first compound 4 µM): 0.562
relative viability ([3]; first compound 0.04 µM): 1.23
relative viability ([3]; first compound 0.1265 µM): 1.07
relative viability ([3]; first compound 0.4 µM): 1.05
relative viability ([3]; first compound 1.265 µM): 1.07
relative viability ([3]; first compound 4 µM): 1.24

LXF-289
relative viability (Mirin + OSI-027; first compound 0.25 µM): 0.79
relative viability (Mirin + OSI-027; first compound 0.7906 µM): 0.701
relative viability (Mirin + OSI-027; first compound 2.5 µM): 0.764
relative viability (Mirin + OSI-027; first compound 7.906 µM): 0.715
relative viability (Mirin + OSI-027; first compound 25 µM): 0.763
relative viability ([1]; first compound 0.04 µM): 0.972
relative viability ([1]; first compound 0.1265 µM): 0.974
relative viability ([1]; first compound 0.4 µM): 0.918
relative viability ([1]; first compound 1.265 µM): 0.856
relative viability ([1]; first compound 4 µM): 0.795
relative viability ([2]; first compound 0.04 µM): 0.983
relative viability ([2]; first compound 0.1265 µM): 0.957
relative viability ([2]; first compound 0.4 µM): 0.983
relative viability ([2]; first compound 1.265 µM): 0.976
relative viability ([2]; first compound 4 µM): 0.954
relative viability ([3]; first compound 0.04 µM): 1.07
relative viability ([3]; first compound 0.1265 µM): 0.953
relative viability ([3]; first compound 0.4 µM): 0.971
relative viability ([3]; first compound 1.265 µM): 1.04
relative viability ([3]; first compound 4 µM): 0.917

NCI-H23
relative viability (Mirin + OSI-027; first compound 0.25 µM): 0.725
relative viability (Mirin + OSI-027; first compound 2.5 µM): 0.544
relative viability (Mirin + OSI-027; first compound 7.906 µM): 0.443
relative viability (Mirin + OSI-027; first compound 25 µM): 0.589
relative viability ([1]; first compound 0.04 µM): 0.864
relative viability ([1]; first compound 0.1265 µM): 0.74
relative viability ([1]; first compound 0.4 µM): 0.442
relative viability ([1]; first compound 1.265 µM): 0.532
relative viability ([1]; first compound 4 µM): 0.431
relative viability ([2]; first compound 0.04 µM): 0.681
relative viability ([2]; first compound 0.1265 µM): 0.689
relative viability ([2]; first compound 0.4 µM): 0.59
relative viability ([2]; first compound 1.265 µM): 0.623
relative viability ([2]; first compound 4 µM): 0.638
relative viability ([3]; first compound 0.04 µM): 0.868
relative viability ([3]; first compound 0.1265 µM): 1.13
relative viability ([3]; first compound 0.4 µM): 0.905
relative viability ([3]; first compound 1.265 µM): 0.98
relative viability ([3]; first compound 4 µM): 1.16

NCI-H322M
relative viability (Mirin + OSI-027; first compound 0.25 µM): 0.543
relative viability (Mirin + OSI-027; first compound 0.7906 µM): 0.4
relative viability (Mirin + OSI-027; first compound 2.5 µM): 0.643
relative viability (Mirin + OSI-027; first compound 7.906 µM): 0.475
relative viability (Mirin + OSI-027; first compound 25 µM): 0.444
relative viability ([1]; first compound 0.04 µM): 0.714
relative viability ([1]; first compound 0.1265 µM): 0.716
relative viability ([1]; first compound 0.4 µM): 0.617
relative viability ([1]; first compound 1.265 µM): 0.47
relative viability ([1]; first compound 4 µM): 0.559
relative viability ([2]; first compound 0.04 µM): 0.979
relative viability ([2]; first compound 0.1265 µM): 0.801
relative viability ([2]; first compound 0.4 µM): 0.911
relative viability ([2]; first compound 1.265 µM): 0.909
relative viability ([2]; first compound 4 µM): 1.02
relative viability ([3]; first compound 0.04 µM): 1.37
relative viability ([3]; first compound 0.1265 µM): 1.17
relative viability ([3]; first compound 0.4 µM): 1.2
relative viability ([3]; first compound 1.265 µM): 1.3
relative viability ([3]; first compound 4 µM): 1.39

NCI-H441
relative viability (Mirin + OSI-027; first compound 0.25 µM): 0.673
relative viability (Mirin + OSI-027; first compound 0.7906 µM): 0.6
relative viability (Mirin + OSI-027; first compound 2.5 µM): 0.598
relative viability (Mirin + OSI-027; first compound 7.906 µM): 0.473
relative viability (Mirin + OSI-027; first compound 25 µM): 0.602
relative viability ([1]; first compound 0.04 µM): 0.261
relative viability ([1]; first compound 0.1265 µM): 0.26
relative viability ([1]; first compound 0.4 µM): 0.251
relative viability ([1]; first compound 1.265 µM): 0.243
relative viability ([1]; first compound 4 µM): 0.252
relative viability ([2]; first compound 0.04 µM): 0.526
relative viability ([2]; first compound 0.1265 µM): 0.553
relative viability ([2]; first compound 0.4 µM): 0.444
relative viability ([2]; first compound 1.265 µM): 0.489
relative viability ([2]; first compound 4 µM): 0.497
relative viability ([3]; first compound 0.04 µM): 0.523
relative viability ([3]; first compound 0.1265 µM): 0.366
relative viability ([3]; first compound 0.4 µM): 0.301
relative viability ([3]; first compound 1.265 µM): 0.356
relative viability ([3]; first compound 4 µM): 0.383

NCI-H460
relative viability (Mirin + OSI-027; first compound 0.25 µM): 0.612
relative viability (Mirin + OSI-027; first compound 0.7906 µM): 0.672
relative viability (Mirin + OSI-027; first compound 2.5 µM): 0.748
relative viability (Mirin + OSI-027; first compound 7.906 µM): 0.55
relative viability (Mirin + OSI-027; first compound 25 µM): 0.389
relative viability ([1]; first compound 0.04 µM): 0.0568
relative viability ([1]; first compound 0.1265 µM): 0.0572
relative viability ([1]; first compound 0.4 µM): 0.0592
relative viability ([1]; first compound 1.265 µM): 0.0521
relative viability ([1]; first compound 4 µM): 0.0564
relative viability ([2]; first compound 0.04 µM): 0.891
relative viability ([2]; first compound 0.1265 µM): 0.683
relative viability ([2]; first compound 0.4 µM): 0.828
relative viability ([2]; first compound 1.265 µM): 0.716
relative viability ([2]; first compound 4 µM): 0.718
relative viability ([3]; first compound 0.04 µM): 1.11
relative viability ([3]; first compound 0.1265 µM): 1.1
relative viability ([3]; first compound 0.4 µM): 0.977
relative viability ([3]; first compound 1.265 µM): 1.06
relative viability ([3]; first compound 4 µM): 0.951
